Results: publication PMC8183095, “Uncovering the chemistry of C–C bond formation in C-nucleoside biosynthesis: crystal structure of a C-glycoside synthase/PRPP complex” (Chemical Communications (Cambridge, England), 2020)

Tests used:
ForT [1] = biological target: T1, ForT (Streptomyces kaniharaensis, UniProt A0A5S9CYM0, G134P); test: biochemical
T1 construct: gene cof6

ForT [2] = biological target: T2, ForT (Streptomyces kaniharaensis, UniProt A0A5S9CYM0); test: biochemical; parameters: gene cof6
T2 sequence (A0A5S9CYM0 1-341): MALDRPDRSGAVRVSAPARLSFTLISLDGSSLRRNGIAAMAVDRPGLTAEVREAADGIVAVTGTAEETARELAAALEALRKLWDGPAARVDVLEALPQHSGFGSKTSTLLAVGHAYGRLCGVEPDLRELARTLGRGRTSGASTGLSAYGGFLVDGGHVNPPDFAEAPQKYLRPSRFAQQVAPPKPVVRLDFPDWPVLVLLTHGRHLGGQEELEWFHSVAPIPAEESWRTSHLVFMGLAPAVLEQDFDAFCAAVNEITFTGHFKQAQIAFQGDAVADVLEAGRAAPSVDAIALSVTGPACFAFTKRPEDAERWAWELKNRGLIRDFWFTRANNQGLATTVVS

ForT [3] = biological target: T2, ForT; test: LCMS product detection; membrane-inlet mass spectrometry of CO2 production; type: biochemical; parameters: gene cof6; recombinant wild type, expressed in and purified from Escherichia coli; residues 11-171, 180-205, 209-341 (C-terminus) seen in the crystal; dimer in solution; conditions: co-substrate PRPP; Mg2+ apparently needed
[4] = biological target: ForT (wild type), C-glycoside synthase from Streptomyces kaniharaensis (Streptomyces kaniharaensis); test: SEC-MALS; gel filtration and multi-angle light scattering of ForT in solution

T1 sequence (A0A5S9CYM0 entry or part of it G134P): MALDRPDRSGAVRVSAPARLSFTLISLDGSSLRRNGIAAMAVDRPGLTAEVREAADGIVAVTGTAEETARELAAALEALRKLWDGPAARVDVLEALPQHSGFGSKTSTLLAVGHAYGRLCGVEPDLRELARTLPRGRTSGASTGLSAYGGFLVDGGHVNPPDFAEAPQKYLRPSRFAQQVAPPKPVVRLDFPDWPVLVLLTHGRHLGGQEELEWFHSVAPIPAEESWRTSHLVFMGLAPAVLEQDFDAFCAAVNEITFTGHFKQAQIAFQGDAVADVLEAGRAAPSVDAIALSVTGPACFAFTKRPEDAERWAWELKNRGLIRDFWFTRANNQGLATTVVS

**Q.** With `O=P(O)(O)OC[C@H]1O[C@H](OP(=O)(O)OP(=O)(O)O)[C@H](O)[C@@H]1O` [compound 4, PRPP] as the compound, how does the Kd (ForT [1]) read?
**A.** The Kd was greater than 200 µM.

**Q.** What about the Kd (ForT [2]) of the same compound?
**A.** The Kd was 4 µM.

**Q.** How did the “LCMS product detection; membrane-inlet mass spectrometry of CO2 production” value (ForT [3]) turn out when `Nc1c(C(=O)O)n[nH]c1C(=O)O` [compound 5, 4-amino-1H-pyrazole-3,5-dicarboxylate] was run?
**A.** Its value is “LCMS confirmed formation of the expected product when the enzyme was incubated with PRPP”.

**Q.** “ForT (wild type), C-glycoside synthase from Streptomyces kaniharaensis (enzyme)” was tested. Which stoichiometry N [4] did it give?
**A.** Its stoichiometry N is 2.
